# Assay results from US9353082B2, “Pharmaceutical compounds” (BIAL—PORTELA & CA, S.A., priority 2008, dated 2016).
# Target: T1, FAAH (Rattus norvegicus, UniProt P97612)
# T1 construct: Frozen brains (without cerebellum) from Wistar rats were used; from tissue; host or cells: Wistar rat brain (without cerebellum), washed membrane pellets
# T1 sequence (P97612 1-579): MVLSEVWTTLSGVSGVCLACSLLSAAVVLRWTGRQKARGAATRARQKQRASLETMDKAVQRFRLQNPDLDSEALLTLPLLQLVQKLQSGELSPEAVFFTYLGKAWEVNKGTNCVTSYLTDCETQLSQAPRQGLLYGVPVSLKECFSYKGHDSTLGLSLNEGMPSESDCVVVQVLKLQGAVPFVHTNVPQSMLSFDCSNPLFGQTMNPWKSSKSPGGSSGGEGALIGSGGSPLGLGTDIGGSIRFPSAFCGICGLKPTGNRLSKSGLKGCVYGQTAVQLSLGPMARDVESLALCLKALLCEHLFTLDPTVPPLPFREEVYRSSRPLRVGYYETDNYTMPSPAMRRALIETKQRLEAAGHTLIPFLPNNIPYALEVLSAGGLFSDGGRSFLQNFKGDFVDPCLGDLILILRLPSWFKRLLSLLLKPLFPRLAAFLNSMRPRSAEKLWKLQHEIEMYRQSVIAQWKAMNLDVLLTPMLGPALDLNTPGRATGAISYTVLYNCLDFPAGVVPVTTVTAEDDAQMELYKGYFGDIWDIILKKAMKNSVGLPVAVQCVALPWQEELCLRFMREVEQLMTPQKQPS
# Assay: In vitro FAAH activity in rat brain membranes, 3H-AEA substrate, % of control
# Assay type: biochemical, Wistar rats
# Conditions: 100 nM test compound, low value = strong inhibitor
# Procedure: 3. Biological Efficacy of Compounds of the Invention The in vitro test was performed according to the protocol described below. The controls for both in vitro and in vivo were the reaction mix minus the test compounds. Therefore, a low value in Table 1 below for the test compounds indicates a strong inhibitor.
# The in vitro pharmaceutical FAAH activity was determined according to the following method:
# Frozen brains (without cerebellum) from Wistar rats were used, and each brain was homogenized in 15 ml 1 mM MgCL2, […] HEPES pH 7.0 with Potter Elvejhem (8 strokes at 500 rpm). Homogenates were centrifuged for 20 min at 36000 g at 4° C. (Beckman, 70Ti rotor). Pellets were resuspended in 15 ml of the same buffer and centrifuged under the same conditions. Pellets were resuspended in 15 ml of the same buffer and incubated for 15 min at 37° C. after which they were centrifuged for 20 min at 36000 g at 4° C. Each pellet was then resuspended in 15 ml 3 mM MgCl2, 1 mM EDTA, 50 mM Tris pH 7.4 and protein determined with BioRad Protein Assay (BioRad) using a standard curve of BSA (50-250 μg/ml). The membrane suspensions were aliquoted and stored at −80° C.
# The FAAH activity was determined using AEA (labelled with 3H in the ethanolamine part of the molecule) as substrate and measuring the 3H-ethanolamine formed. Reaction mix (total volume of 200 up contained: 2 μM AEA (2 μM AEA+5 nM 3H-AEA), 0.1% fatty acid free BSA, 5 μg protein, in 1 mM EDTA, 10 mM Tris pH 7.6 and 10 μM or 0.1 μM compounds. Stock solutions of the compounds to test (10 mM) were prepared in 100% DMSO and the DMSO concentration in the assay was 0.1%. After a 15 min preincubation period at 37° C., reaction was started by the addition of the substrate solution ([…]). Reaction was carried out for 10 min before termination by the addition of 400 μl activated charcoal suspension (8 g charcoal in 32 ml 0.5 M HCl in continuous agitation). After a 30 min incubation period at room temperature with agitation, charcoal was sedimented by centrifugation in microfuge (10 min at 13000 rpm). 200 μl of the supernatant were added to 800 μl Optiphase Supermix scintillation cocktail previously distributed in 24-well plates. Counts per minute (cpm) were determined in Microbeta TriLux scintillation counter (10 min counting or until s=2).
# In each assay blanks (no protein, usually below 200 cpm) and controls (no compound) were present. The results are reported in Table 1 as % of control after blank subtraction.
row,SMILES,"In Vitro FAAH activity, 100 nM"
1,"O=C(N1CCC(c2ccccc2)CC1)n1nnc2ccccc21 [Compound 94, (1H-benzo[d][1,2,3]triazol-1-yl)(4-phenylpiperidin-1-yl)methanone]",0 % of control
2,"CN(C(=O)n1nnc2cc(-c3cccc(C#N)c3)ccc21)C1CCCCC1 [Compound 95, 5-(3-cyanophenyl)-N-cyclohexyl-N-methyl-1H-benzo[d][1,2,3]triazole-1-carboxamide]",0.7 % of control
3,"CN(C(=O)n1nnc2cc(-c3ccc(F)cc3)ccc21)C1CCCCC1 [Compound 96, N-cyclohexyl-5-(4-fluorophenyl)-N-methyl-1H-benzo[d][1,2,3]triazole-1-carboxamide]",14.3 % of control
4,"O=C(N1CCCC1)n1nnc2ccccc21 [Compound 98, (1H-benzo[d][1,2,3]triazol-1-yl)(pyrrolidin-1-yl)methanone]",0.6 % of control
5,"O=C(N1CCN(c2ccccc2)CC1)n1cnc(-c2ccccc2)c1 [Compound 101, (4-phenyl-1H-imidazol-1-yl)(4-phenylpiperazin-1-yl)methanone]",0.5 % of control
6,"O=C(N1CCN(Cc2ccccc2)CC1)n1cnc(-c2ccccc2)c1 [Compound 102, (4-benzylpiperazin-1-yl)(4-phenyl-1H-imidazol-1-yl)methanone]",0.9 % of control
7,"CN(C(=O)n1cnc(-c2ccccc2)c1)C1CCCCC1 [Compound 103, N-cyclohexyl-N-methyl-4-phenyl-1H-imidazole-1-carboxamide]",37.5 % of control
8,"CCN(C(=O)n1nnc2ccccc21)C1CCCCC1 [Compound 104, N-cyclohexyl-N-ethyl-1H-benzo[d][1,2,3]triazole-1-carboxamide]",94.2 % of control
9,"Cl.O=C(N1CCC(CCN2CCCC2)CC1)n1nnc2ccccc21 [Compound 105, (1H-benzo[d][1,2,3]triazol-1-yl)(4-(2-(pyrrolidin-1-yl)ethyl)piperidin-1-yl)methanone hydrochloride]",64.7 % of control
10,"CN(C(=O)n1nnc2ccc(-c3ccc(F)cc3)cc21)C1CCCCC1 [Compound 106, N-cyclohexyl-6-(4-fluorophenyl)-N-methyl-1H-benzo[d][1,2,3]triazole-1-carboxamide]",2.3 % of control
11,"CN(C(=O)n1nnc2cc(-c3cccc(C(=O)O)c3)ccc21)C1CCCCC1 [Compound 107, 3-(1-(cyclohexyl(methyl)carbamoyl)-1H-benzo[d][1,2,3]triazol-5-yl)benzoic acid]",13.5 % of control
12,"CN(C(=O)n1nnc2cc(-c3cccc(C(N)=O)c3)ccc21)C1CCCCC1 [Compound 108, 5-(3-carbamoylphenyl)-N-cyclohexyl-N-methyl-1H-benzo[d][1,2,3]triazole-1-carboxamide]",7.4 % of control
13,"CN(C(=O)n1nnc2ccc(-c3cccc(C(N)=O)c3)cc21)C1CCCCC1 [Compound 109, 6-(3-carbamoylphenyl)-N-cyclohexyl-N-methyl-1H-benzo[d][1,2,3]triazole-1-carboxamide]",0 % of control
14,"O=C(N1CCN(c2ccccc2)CC1)n1cnc(-c2ccccc2)n1 [Compound 111, (3-phenyl-1H-1,2,4-triazol-1-yl)(4-phenylpiperazin-1-yl)methanone]",1.5 % of control
15,"NC(=O)c1ccc(-c2cn(C(=O)N3CCN(Cc4ccccc4)CC3)cn2)cc1 [Compound 112, 4-(1-(4-benzylpiperazine-1-carbonyl)-1H-imidazol-4-yl)benzamide]",7.2 % of control
16,"CN(CCc1ccccc1)C(=O)n1nnc2ccccc21 [Compound 115, N-methyl-N-phenethyl-1H-benzo[d][1,2,3]triazole-1-carboxamide]",0 % of control
17,"O=C(N1CCC(Oc2ccc(Cl)cc2)CC1)n1nnc2ccccc21 [Compound 117, (1H-benzo[d][1,2,3]triazol-1-yl)(4-(4-chlorophenoxy)piperidin-1-yl)methanone]",0.1 % of control
18,"CN(CCCc1ccccc1)C(=O)n1nnc2ccccc21 [Compound 118, N-methyl-N-(3-phenylpropyl)-1H-benzo[d][1,2,3]triazole-1-carboxamide]",0 % of control
19,"COc1cccc(CN(C)C(=O)n2nnc3ccccc32)c1 [Compound 119, N-(3-methoxybenzyl)-N-methyl-1H-benzo[d][1,2,3]triazole-1-carboxamide]",0 % of control
20,"O=C(N1CCC(Oc2ccccc2)CC1)n1nnc2ccccc21 [Compound 120, (1H-benzo[d][1,2,3]triazol-1-yl)(4-phenoxypiperidin-1-yl)methanone]",0.1 % of control
21,"CN1CCN(C2CCN(C(=O)n3nnc4ccccc43)CC2)CC1.Cl [Compound 122, (1H-benzo[d][1,2,3]triazol-1-yl)(4-(4-methylpiperazin-1-yl)piperidin-1-yl)methanone hydrochloride]",93 % of control
22,"CN(Cc1cccc(Cl)c1)C(=O)n1nnc2ccccc21 [Compound 123, N-(3-chlorobenzyl)-N-methyl-1H-benzo[d][1,2,3]triazole-1-carboxamide]",0 % of control
23,"Cl.O=C(N1CCN(Cc2ccccc2)CC1)n1cnc(-c2ccccc2)n1 [Compound 124, (4-benzylpiperazin-1-yl)(3-phenyl-1H-1,2,4-triazol-1-yl)methanone hydrochloride]",1.5 % of control
24,"Cl.O=C(N1CCN(Cc2ccccc2)CC1)n1cnc(-c2ccc(OCc3ccccc3)cc2)n1 [Compound 125, (3-(4-(benzyloxy)phenyl)-1H-1,2,4-triazol-1-yl)(4-benzylpiperazin-1-yl)methanone hydrochloride]",53.5 % of control
25,"O=C(N1CCC(OCc2ccccc2)CC1)n1nnc2ccccc21 [Compound 128, (1H-benzo[d][1,2,3]triazol-1-yl)(4-(benzyloxy)piperidin-1-yl)methanone]",0 % of control
26,"CN(Cc1ccc(F)cc1)C(=O)n1nnc2ccccc21 [Compound 130, N-(4-fluorobenzyl)-N-methyl-1H-benzo[d][1,2,3]triazole-1-carboxamide]",0 % of control
27,"CN(Cc1ccc2ccccc2c1)C(=O)n1nnc2ccccc21 [Compound 131, N-methyl-N-(naphthalen-2-ylmethyl)-1H-benzo[d][1,2,3]triazole-1-carboxamide]",0 % of control
28,"Cc1ccc(OC2CCN(C(=O)n3cnc(-c4ccc(N5CCN(C)CC5)cc4)n3)CC2)cc1.Cl [Compound 132, (3-(4-(4-methylpiperazin-1-yl)phenyl)-1H-1,2,4-triazol-1-yl)(4-(p-tolyloxy)piperidin-1-yl)methanone hydrochloride]",85.1 % of control
29,"O=C(N1CCOCC1)n1cnc(-c2ccc(N3CCN(Cc4ccccc4)CC3)cc2)n1 [Compound 133, (3-(4-(4-benzylpiperazin-1-yl)phenyl)-1H-1,2,4-triazol-1-yl)(morpholino)methanone]",90.7 % of control
30,"Cc1ccc(OC2CCN(C(=O)n3cnc(-c4ccc(F)cc4F)n3)CC2)cc1 [Compound 134, (3-(2,4-difluorophenyl)-1H-1,2,4-triazol-1-yl)(4-(p-tolyloxy)piperidin-1-yl)methanone]",34.5 % of control

# Same assay, conditions: 10 uM test compound, low value = strong inhibitor
row,SMILES,"In Vitro FAAH activity, 10 uM"
1,"CN(C(=O)n1cnc(-c2ccccc2)c1)C1CCCCC1 [Compound 103, N-cyclohexyl-N-methyl-4-phenyl-1H-imidazole-1-carboxamide]",0 % of control
